# From patent US6969760B2, “Jak kinases and regulation of cytokine signal transduction” (St. Jude Children's Research Hospital, priority 1993, dated 2005)
# Where “and” joins values, the source holds several entries; their conditions need not be identical. Equal entries are not always repeated.
# Legend:
# [1] = tested on: EPO-induced cell proliferation; settings: cited from earlier work
# Jak2 [2] = target: T1, Jak2 (Mus musculus, UniProt Q62120); assay: In vitro kinase assay with Jak2 immunoprecipitated from cell lysates (32P-gamma-ATP, autoradiography); type: biochemical; settings: genestein at 0.1 mM in the in vitro kinase assay
# T1 construct: endogenous in cells; host or cells: mammalian cells stimulated with EPO or IL-3
# T1 sequence (Q62120 whole entry): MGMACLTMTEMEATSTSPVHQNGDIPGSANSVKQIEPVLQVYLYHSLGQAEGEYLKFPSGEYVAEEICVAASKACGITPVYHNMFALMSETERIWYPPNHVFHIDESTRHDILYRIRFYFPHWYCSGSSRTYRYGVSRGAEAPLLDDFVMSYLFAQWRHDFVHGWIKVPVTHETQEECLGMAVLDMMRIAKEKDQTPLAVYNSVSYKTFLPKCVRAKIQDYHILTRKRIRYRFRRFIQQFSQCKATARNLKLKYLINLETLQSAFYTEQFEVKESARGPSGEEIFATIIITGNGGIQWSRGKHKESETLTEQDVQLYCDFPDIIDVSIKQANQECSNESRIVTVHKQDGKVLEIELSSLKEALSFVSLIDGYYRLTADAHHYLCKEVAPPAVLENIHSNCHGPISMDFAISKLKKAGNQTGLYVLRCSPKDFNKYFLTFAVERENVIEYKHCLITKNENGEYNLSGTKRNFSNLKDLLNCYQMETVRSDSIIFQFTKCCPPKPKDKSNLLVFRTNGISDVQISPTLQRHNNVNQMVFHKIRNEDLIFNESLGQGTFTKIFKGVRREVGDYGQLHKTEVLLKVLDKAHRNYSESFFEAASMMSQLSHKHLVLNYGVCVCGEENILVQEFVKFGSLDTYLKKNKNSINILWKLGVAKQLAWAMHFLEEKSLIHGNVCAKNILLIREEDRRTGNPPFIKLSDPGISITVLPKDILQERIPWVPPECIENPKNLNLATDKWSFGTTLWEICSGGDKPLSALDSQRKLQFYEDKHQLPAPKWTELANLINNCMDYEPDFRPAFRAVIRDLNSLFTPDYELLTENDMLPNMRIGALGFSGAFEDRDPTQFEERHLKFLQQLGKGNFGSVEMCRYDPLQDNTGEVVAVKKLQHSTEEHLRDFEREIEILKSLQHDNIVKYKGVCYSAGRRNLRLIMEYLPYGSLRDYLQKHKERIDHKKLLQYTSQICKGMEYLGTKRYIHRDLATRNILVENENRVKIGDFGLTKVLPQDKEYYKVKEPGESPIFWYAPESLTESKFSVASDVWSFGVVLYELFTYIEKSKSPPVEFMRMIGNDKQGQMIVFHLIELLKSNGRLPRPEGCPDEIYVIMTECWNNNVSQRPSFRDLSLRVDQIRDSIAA
# Protocol: In this assay, purified Jak2 is precipitated from cell lysates using Jak2-specific antisera bound to protein A-sepharose. The immunoprecipitated Jak2 is then washed with kinase buffer (50 mM NaCl, 5 mM MgCl2, 5 mM MnCl2, 0.1 mM Na3VO4, 10 mM HEPES pH 7.4) and subsequently incubated for 30 minutes at room temperature with an equal volume of kinase buffer containing 0.25 mCi/ml ^32P-gamma-ATP. After extensive washing, proteins are eluted with sample buffer for SDS-PAGE and separated on 7% gels. ^32P-containing proteins are then visualized by autoradiography.
# Thus, activation of the Jak2 catalytic activity is correlated with the biological activities of these cytokines.
# [3] = tested on: tyrosine kinase activity associated with the CNTF receptor complex (gp130, LIFRβ); assay: In vitro tyrosine kinase activity associated with the purified CNTF receptor complex; type: biochemical; settings: compared with CNTF-treated intact cells
# Protocol: Cell lines were passaged and maintained as previously described (Ip et al., Cell 69:1121-1132 (1992). COS cell transfections were carried out by a DEAE protocol (Davis et al., Science 260:1805-1808 (1993)). Plates of cells were starved in serum-free RPMI medium for 2-4 hours, then stimulated with 50 ng/ml of the indicated factor for 5 minutes. Cells were harvested and lysed as previously described (Stahl et al., J. Biol. Chem. 268:7628-7631 (1993)), except that 1% Brij 96 (Sigma) or 1% NP-40 (Boehringer) was used as indicated. Immunoprecipitation, electrophoresis, and anti-phosphotyrosine immunoblotting with monoclonal antibody 4G10 (Upstate Biotechnology) and detection via enhanced chemiluminescence (Amersham) was carried out as previously described (Id). For in vitro kinase assays, the washed beads were incubated for 15 min at room temperature in 20 mM Hepes (pH 7.2), 10 mM MnCl2, 30 mM sodium orthovanadate and 10 MCi of (g-^32P)ATP (NEN DUPONT). Electrophoresis sample buffer was added and the samples were boiled, subjected to SDS PAGE, and electroblotted to PVDF. The membrane was then incubated in 1 M NaOH at 65° C. for 60 min to destroy serine and threonine phosphate before autoradiography.
# Jak2 [4] = assay: GH-dependent tyrosyl phosphorylation of Jak2 (αJak2 immunoprecipitation, αPY immunoblot) in 3T3-F442A fibroblasts; type: cell-based
# Protocol: Jak2 is a tyrosine kinase of the correct size (Mr of ˜130,000; see example 1) to be the GHR-associated kinase and was therefore tested for its ability to be phosphorylated in response to GH. Solubilized proteins from GH-treated 3T3-F442A fibroblasts were immunoprecipitated using antiserum to Jak2 (αJak2) and analyzed by anti-phosphotyrosine antibody (αPY) immunoblot. Cells were incubated with varying physiological concentrations of GH in ranging in 10-fold increments from 0.5 ng/ml to 500 ng/ml (the standard concentration used) for 0, 0.5, 5, 50, and 60 minutes.
# Cells were grown to confluence and deprived of serum overnight as described previously (Wang, X. et al., J. Biol. Chem. 268:3573-3579 (1993)). Cells were incubated for the indicated times with hormone or growth factor as indicated at 37° C. in 95% air, 5% CO2, rinsed with three changes of ice-cold 10 mM sodium phosphate (pH 7.4), 137 mM NaCl, 1 mM Na3VO4, and scraped in lysis buffer (50 mM Tris (pH 7.5), 0.1% Triton X-100, 137 mM NaCl, 2 mM EGTA, 1 mM Na3VO4, 1 mM phenylmethylsulfonyl fluoride, 10 μg/ml aprotinin, and 10 μg/ml leupeptin) on ice. Cell lysates were centrifuged at 12,000×g for 10 min, and the resulting supernatants were incubated on ice 90 min with the indicated antibody. […]
compound,measurement,setting,value
O=c1c(-c2ccc(O)cc2)coc2cc(O)cc(O)c12 [genestein],effect on ability of EPO to stimulate cell growth,[1],inhibit the ability of EPO to stimulate cell growth
same,reduction in the tyrosine kinase activity of Jak2,Jak2 [2],2 fold
CN[C@@H]1C[C@H]2O[C@@](C)([C@@H]1OC)n1c3ccccc3c3c4c(c5c6ccccc6n2c5c31)C(=O)NC4 [staurosporine],sensitivity of receptor-associated in vitro kinase activity to staurosporine,[3],same sensitivity to staurosporine as that observed upon addition of CNTF to intact cells
GH: Recombinant human GH (hGH) provided by Eli Lilly,earliest time at which GH-dependent tyrosyl phosphorylation of Jak2 was clearly evident,Jak2 [4],30 s
same,lowest GH concentration at which tyrosyl phosphorylation of Jak2 was clearly evident,Jak2 [4],5.0 ng/ml and 230 pM
